Values quoted from earlier work as cited in patent publication US5965423A, “Human lysophospholipase” (Incyte Pharmaceuticals, Inc., priority 1998, dated 1999).

Biological target: T1, monomeric, 24 kD lysophospholipase (LPL) from rat liver (Rattus norvegicus, UniProt P70470)
T1 construct: isolated a monomeric, 24 kD LPL from rat liver; host or cells: rat liver (tissue-purified enzyme, Sugimoto et al. 1996)
Details: substrate 1-palmitoyl-glycero-3-phosphocholine; substrate dependence curve sigmoidal

T1 sequence (P70470 whole entry): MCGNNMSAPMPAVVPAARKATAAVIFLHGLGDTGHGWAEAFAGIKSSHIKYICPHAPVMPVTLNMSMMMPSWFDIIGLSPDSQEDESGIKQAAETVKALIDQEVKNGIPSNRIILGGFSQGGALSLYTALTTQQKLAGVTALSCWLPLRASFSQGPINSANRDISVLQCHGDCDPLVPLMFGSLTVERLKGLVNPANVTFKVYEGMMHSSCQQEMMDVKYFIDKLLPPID

CCCCCCCCCCCCCCCC(=O)OCC(O)COP(=O)([O-])OCC[N+](C)(C)C (centres unmarked) [1-palmitoyl-glycero-3-phosphocholine]
Km: 170 µM
Vmax: 1.55 µM/min/mg
